Test results from patent US20260200987A1, “PEPTIDE FOR CARTILAGE REGENERATION, AND USES THEREOF” (CAREGEN CO., LTD., priority 2022, published 2026).
Ends that are not written are not given here.

Experiments:
[1] = test system: human adipose-derived mesenchymal stem cells (AD-MSC); assay: SRB staining, cell morphology changes; type: cell-based; conditions: peptide at different concentrations, FIG. 1 and FIG. 2
Method: Additionally, for SRB staining, after suctioning the medium from the plate, 60 μL of 3.7% formalin was added to the 96-well plate to be stained and fixed for 1 minute. After suctioning 3.7% formalin, 70 μL of SRB staining solution (sulforhodamine B sodium salt (sigma, S9012): 0.2 g in 100 mL DDW) was added and stained. The plate was covered with aluminum foil, blocked from light, and incubated overnight at room temperature. After washing with 100 μL of 1% acetic acid using a multi-pipette, it was dried and observed under a microscope.

[2] = test system: human adipose-derived mesenchymal stem cells (AD-MSC); assay: CCK-8 assay, cytotoxicity; type: cell-based; conditions: after 7 days, peptide at different concentrations, FIG. 3 and FIG. 4
Method: Specifically, AD-MSC cells were seeded in 96-well plates at a density of 1.5×10^3 cells/well and cultured in Dulbecco's Modified Eagle's Medium (DMEM) supplemented with 10% FBS for 24 hours. Then, the medium was replaced with DMEM medium supplemented with 5% FBS, and Peptide-1 or Peptide-2 was treated at different concentrations, respectively. Subsequently, the medium was replaced every 3 days and Peptide-1 or Peptide-2 was treated at different concentrations, respectively. To confirm CCK-8 activity, after 7 days, CCK-8 (Dojindo, CCK-8 kit) solution was added at 1/10 volume of the culture medium, and incubated for 2 hours. The culture medium was sampled and CCK-8 activity was confirmed at a wavelength of 450 nm using a microplate reader.

Sequence	change in cell morphology in SRB staining [1]	toxicity toward adipose-derived mesenchymal stem cells (CCK-8 activity) [2]
FCRPRNDFF [Peptide-2, FCRPRNDFF]	did not show any change in cell morphology	did not exhibit toxicity
RIAFLWVRIK [Peptide-1, RIAFLWVRIK]	did not show any change in cell morphology	did not exhibit toxicity
